Patent US20260327195A1, “2-STYRYLBENZOTHIAZOLE DERIVATIVES AS ALPHA-SYNUCLEIN BINDING COMPOUNDS” (Eberhard Karls Universität Tübingen Medizinische Fakultät, priority 2023, published 2026)

Experiments:
[1] = test system: αSYN; details: result in words; cited from earlier work
[2] = test system: Aβ fibrils; details: result in words; cited from earlier work
[3] = In vivo dynamic PET/MR imaging, pharmacokinetic profile; parameters: species or system mouse (wild-type female C57BL/6J); details: i.v.
Protocol: The animal experiments were performed in compliance to the European directives on the protection and use of laboratory animals (Council Directive 2010/63/UE) and the German animal welfare act with approval from the local authorities (Regierungspräsidium Tuebingen, R3/19G). Three healthy wild-type female C57BL/6J mice (20.3±0.9 g; 9 weeks old) purchased from Charles River Laboratories (Sulzbach, Germany) were maintained in a vivarium on a 12:12 hour light dark cycle and were kept at a temperature of 22° C. with 40-60% humidity and free access to a standard diet and tap water.
The mice (n=3) were anaesthetized with 1.5% isoflurane evaporated in 100% oxygen at a flow rate of 0.8 L/min. Body temperature of 37° C. was maintained using a feedback temperature control unit. PET imaging studies were performed on Inveon dedicated microPET system (Inveon D-PET, Siemens, Knoxville, TN, USA). Five seconds after the start of PET acquisition, mice were injected intravenously with 9.9±0.6 MBq of [^18F]MFSB (Am=46.2±2.5 GBq/μmol at time of injection). The one-hour dynamic acquisitions were divided into 39 time frames (12×5 s, 6×10 s, 6×30 s, 5×60 s and 10×300 s). A 13-minute transmission measurement with a cobalt-57 point source was performed for attenuation correction. Subsequently, an anatomical magnetic resonance (MR) scan with a 7 Tesla MR scanner (ClinScan, Bruker BioSpin MRI GmbH, Ettlingen, Germany) using a rat whole-body volume coil and the Paravision software (v6.0.1, Bruker, Ettlingen, Germany) using a T2-weighted Turbo-RARE MRI sequence.
The PET image was reconstructed via the OSEM3D/SP-MAP reconstruction algorithm and coregistered to the whole-body MRI scan. Volumes of interest (VOIs) were hand-drawn for the relevant organs based on the MR anatomy in PMOD (PMOD Technologies, Faellanden, Switzerland, Version 4.2) and VOIs at different regions in the mouse brain were extracted using the atlas provided by PMOD to calculate the respective time-activity curves (TACs). Standardized uptake values (SUVs) were calculated as a ratio of the detected activity with injected activity and weight (SUV=(TAC (kBq/cc)/inj. activity (kBq))*weight (g)).

[4] = biological target: T1, Aβ plaques in AD human brain slices (Homo sapiens, UniProt P05067); experiment: In vitro autoradiography on AD human brain slices (frontal cortex); type: binding
T1 construct: mainly Abeta40/42 cut from APP) in post-mortem AD frontal cortex slices
Protocol: (§1) Post-mortem human brain slices (10 μm thickness) were obtained from and the subject cases were analyzed by the Neurobiobank München (NBM, Munich, Germany), where tissues were collected on the basis of written informed consent according to the guidelines of the ethics committee of the Ludwig-Maximilians-University Munich, Germany (#345-13). The use of brain tissue samples in this study was approved by the ethics committee of the Faculty of Medicine at the University of Tuebingen (Ethics approval number: 813/2018BO2). Table 1 summarizes the information of the subjects from which samples were obtained and used in the experiment.
(§2) For autoradiography, brain slices were thawed for one hour before pre-incubation in BSA buffer for 25 minutes at room temperature. To determine total binding (TB), brain slices were incubated with the tracer (10 nM [^18F]PFSB, 10 nM [^18F]MFSB). Incubation of consecutive slices with the correspondent non-radioactive compounds (10 μM PFSB, […]) was performed to determine non-specific binding (NSB). The non-radioactive compounds were prepared by dissolving in DMSO to 10 mM, which yielded DMSO concentration of ≤0.1% in the final solution. Incubation was carried out for one hour at room temperature with subsequent washing in cold BSA buffer (three times for ten minutes) followed by three dipping in cold deionized water. After drying under UV lamps, brain slices were exposed to a storage phosphor screen (Molecular Dynamics, Caesarea, Israel) for 18 hours, which was then scanned in a phosphor imager (STORM 840, Molecular dynamics, Sunnyvale, CA, USA).
(§3) Quantitative data analysis was performed by drawing four regions of interest (ROIs) in relevant areas of the slice and one ROI next to it for background subtraction (ImageJ 1.8.0_172, National Institute of Health, Bethesda, Maryland, USA) (Schneider, C. A. et al., NIH Image to ImageJ: 25 years of image analysis; Nat Methods 2012, 9 (7), 671-5). Specific binding (SB) is obtained by subtracting NSB from TB. The SB disease/SB control ratio was calculated by dividing by the SB in diseased tissues with the respective SB in control tissues.

[5] = biological target: αSYN pathology in MSA human brain slices (Homo sapiens, UniProt P37840); experiment: In vitro autoradiography on MSA human brain slices (cerebellum); type: binding
Protocol: as §1, §2, §3

[6] = biological target: αSYN pathology in PD human brain slices (Homo sapiens, UniProt P37840); experiment: In vitro autoradiography on PD human brain slices (frontal cortex); type: binding; details: 10 nM tracer; NSB with 10 μM non-radioactive compound
Protocol: as §1
For autoradiography, brain slices were thawed for one hour before pre-incubation in BSA buffer for 25 minutes at room temperature. To determine total binding (TB), brain slices were incubated with the tracer (10 nM [^18F]PFSB, 10 nM [^18F]MFSB). […]
as §3, with “Specific binding (SB) is obtained by subtracting NSB from TB.” left out

[7] = 10 nM tracer, NSB with 10 μM non-radioactive compound

T1 sequence (P05067 672-713 limits assumed): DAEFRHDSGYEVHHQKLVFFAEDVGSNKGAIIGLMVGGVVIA

Cc1ccc2c(c1)sc(-c1ccc(N(C)C)cc1)[n+]2C [thioflavin T]
binding to αSYN [1]: does not bind to αSYN
binding to Aβ fibrils [2]: known to bind to Aβ fibrils

[18F]c1ccc2nc(/C=C/c3ccc(N4CCOCC4)cc3)sc2c1 [[^18F]MFSB]
crossing of the BBB ([3]; 9.9±0.6 MBq, 60 min dynamic PET/MR): crossing of the BBB was successful
clearance from lungs and liver ([3]; after first 2 min, result in words): fast to moderate clearance
uptake in liver (SUV) ([3]; first 2 min): ≈ 5 SUV
uptake in lungs (SUV) ([3]; first 2 min): ≈ 5 SUV
clearance (brain), over 60 min ([3]; result in words): beginning of clearance was observed
kidney uptake ([3]; result in words): Significant kidney uptake
renal excretion, start ([3]; result in words): renal excretion starting in the first few minutes
SB disease/SB control, AD/frontal cortex ctrl [4, 7]: 1.03
binding in AD brain regions with Aβ plaques / AD/frontal cortex SB ratio in words ([4]; result in words, FIG. 12): remained favorable
SB disease/SB control, MSA2/cerebellum ctrl [5, 7]: 1.27
selectivity towards αSYN over Aβ ([5]; autoradiography, result in words, FIG. 12): validated the selective binding to αSYN
non-specific binding on MSA sections ([5]; result in words, hampered quantification of the disease/control SB ratio): with [^18F]MFSB was hampered by high NSB.
SB disease/SB control, PD/frontal cortex ctrl [6]: 1.18
